This note sets out measurements from US10144732B2 (BIOGEN MA INC., priority 2014, dated 2018).

Counter-ions that a name gives are not always drawn. Some results are limits rather than exact numbers.

The target of this experiment is T1, Human ATX protein (Homo sapiens, UniProt Q13822).
T1 construct: made in house
Description: ATX biochemical assay (FRET, FS-3 substrate). The settings on record: FRET assay, FS-3 2 μM, ATX 1.0 μg/mL, 30 minutes preincubation, 2 hours reaction at room temperature; read-out: IC50. The essentials: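 In-house human ATX (1.0 μg/mL final) was preincubated with compound for 30 min at room temperature in Tris buffer pH 7.4 with 1 mg/mL fatty acid free-BSA. FS-3 substrate (2 μM final) was then hydrolysed for 2 hours at room temperature, protected from light, and read as fluorescence at ex 485/em 538 nm.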
For `CCOC(=O)[C@H]1CC[C@H](CC(=O)N2CCc3c(C(F)(F)F)nn(Cc4ccsc4)c3C2)CC1` [Example 1-45, trans-Ethyl-4-(2-oxo-2-(1-(thiophen-3-ylmethyl)-3-(trifluoromethyl)-4,5-dihydro-1H-pyrazolo[3,4-c]pyridin-6(7H)-yl)ethyl)cyclohexanecarboxylate], the IC50 was at most 100 nM. Turning to `O=C(O)C12CCC(C(=O)N3CCc4c(C(F)(F)F)nn(Cc5ccc(F)cc5)c4C3)(CC1)CC2` [Example 5-11, 4-(1-(4-Fluorobenzyl)-3-(trifluoromethyl)-4,5,6,7-tetrahydro-1H-pyrazolo[3,4-c]pyridine-6-carbonyl)bicyclo[2.2.2]octane-1-carboxylic acid], the IC50 is at most 100 nM. For the compound `O=C(CN[C@H]1CC[C@H](C(=O)O)CC1)N1CCc2c(C(F)(F)F)nn(Cc3ccc(F)cc3)c2C1` [Example 13-31, trans-4-(2-(1-(4-Fluorobenzyl)-3-(trifluoromethyl)-4,5-dihydro-1H-pyrazolo[3,4-c]pyridin-6(7H)-yl)-2-oxoethylamino)cyclohexanecarboxylic acid TFA salt], the IC50 was at most 100 nM. As for `O=C(O)C1CCC(CC(=O)N2CCc3c(C(F)(F)F)nn(Cc4ccc(C(F)(F)F)cc4)c3C2)CC1` (mixture of isomers) [Example 6-2, 4-(2-Oxo-2-(3-(trifluoromethyl)-1-(4-(trifluoromethyl)benzyl)-4,5-dihydro-1H-pyrazolo[3,4-c]pyridin-6(7H)-yl)ethyl)cyclohexanecarboxylic acid], the figure is at most 100 nM; as for `O=C(O)CCN1CCC(C(=O)N2CCc3c(C(F)(F)F)nn(Cc4ccc(F)cc4)c3C2)C1` (centres unmarked) [Example 15-2, 3-(3-(1-(4-Fluorobenzyl)-3-(trifluoromethyl)-4,5,6,7-tetrahydro-1H-pyrazolo[3,4-c]pyridine-6-carbonyl)pyrrolidin-1-yl)propanoic acid TFA salt], 100 to 250 nM; as for `O=C(C[C@H]1CC[C@H](C(=O)O)CC1)N1CCc2c(C(F)(F)F)nn(Cc3ccc(F)c(F)c3)c2C1` [Example 5-31, trans-4-(2-(1-(3,4-Difluorobenzyl)-3-(trifluoromethyl)-4,5-dihydro-1H-pyrazolo[3,4-c]pyridin-6(7H)-yl)-2-oxoethyl)cyclohexanecarboxylic acid], at most 100 nM.

For the compound `O=C(C[C@H]1CC[C@H](C(=O)O)CC1)N1CCc2c(C(F)F)nn(Cc3ccc(F)cc3)c2C1` [Example 5-44, trans-4-(2-(3-(Difluoromethyl)-1-(4-fluorobenzyl)-4,5-dihydro-1H-pyrazolo[3,4-c]pyridin-6(7H)-yl)-2-oxoethyl)cyclohexanecarboxylic acid], the IC50 was at most 100 nM.

`O=C(O)[C@H]1CC[C@H](C(=O)N2CCc3c(C(F)(F)F)nn(Cc4ccc(F)cc4)c3C2)CC1` [Example 7-17, trans-4-(1-(4-Fluorobenzyl)-3-(trifluoromethyl)-4,5,6,7-tetrahydro-1H-pyrazolo[3,4-c]pyridine-6-carbonyl)cyclohexanecarboxylic acid]: the half-maximal inhibitory concentration (IC50) is at most 100 nM. As to `O=C(C[C@H]1CC[C@H](C(=O)O)CC1)N1CCc2c(C(F)(F)F)nn(CCc3ccccc3)c2C1` [Example 5-16, trans-4-(2-Oxo-2-(1-phenethyl-3-(trifluoromethyl)-4,5-dihydro-1H-pyrazolo[3,4-c]pyridin-6(7H)-yl)ethyl)cyclohexanecarboxylic acid], the IC50 is 100 to 250 nM. On to `O=C(O)C1CCCN(CC(=O)N2CCc3c(C(F)(F)F)nn(Cc4ccc(Cl)cc4F)c3C2)CC1` (centres unmarked) [Example 13-20, 1-(2-(1-(4-Chloro-2-fluorobenzyl)-3-(trifluoromethyl)-4,5-dihydro-1H-pyrazolo[3,4-c]pyridin-6(7H)-yl)-2-oxoethyl)azepane-4-carboxylic acid TFA salt], for which the IC50 was at most 100 nM. Consider `CC(C)N1CCCC(CC(=O)N2CCc3c(C(F)(F)F)nn(Cc4ccc(F)cc4)c3C2)C1` (centres unmarked) [Example 11-4, 1-(1-(4-Fluorobenzyl)-3-(trifluoromethyl)-4,5-dihydro-1H-pyrazolo[3,4-c]pyridin-6(7H)-yl)-2-(1-isopropylpiperidin-3-yl)ethanone formate], for which the IC50 was at most 100 nM. As for `O=C(C[C@H]1CC[C@@H](C(=O)O)CC1)N1CCc2c(C(F)(F)F)nn(CCC3CCCCC3)c2C1` [Example 7-21, cis-4-(2-(1-(2-Cyclohexylethyl)-3-(trifluoromethyl)-4,5-dihydro-1H-pyrazolo[3,4-c]pyridin-6(7H)-yl)-2-oxoethyl)cyclohexanecarboxylic acid], the figure is at most 100 nM; as for `CCOC(=O)C1CCC(CC(=O)N2CCc3c(C(F)(F)F)nn(Cc4ccc(Cl)cc4)c3C2)CC1` (centres unmarked) [Example 1-8, Ethyl 4-(2-(1-(4-chlorobenzyl)-3-(trifluoromethyl)-4,5-dihydro-1H-pyrazolo[3,4-c]pyridin-6(7H)-yl)-2-oxoethyl)cyclohexanecarboxylate], at most 100 nM; as for `O=C(CCc1nnn[nH]1)N1CCc2c(C(F)(F)F)nn(Cc3ccc(Cl)cc3F)c2C1` [Example 1-31, 1-(1-(4-Chloro-2-fluorobenzyl)-3-(trifluoromethyl)-4,5-dihydro-1H-pyrazolo[3,4-c]pyridin-6(7H)-yl)-3-(1H-tetrazol-5-yl)propan-1-one], at most 100 nM. Consider `CC1(C)CC(CC(=O)N2CCc3c(C(F)(F)F)nn(Cc4ccc(Cl)cc4F)c3C2)CCN1` (centres unmarked) [Example 9-6, 1-(1-(4-Chloro-2-fluorobenzyl)-3-(trifluoromethyl)-4,5-dihydro-1H-pyrazolo[3,4-c]pyridin-6(7H)-yl)-2-(2,2-dimethylpiperidin-4-yl)ethanone TFA salt], for which the IC50 is at most 100 nM. With `O=C(C[C@H]1CC[C@H](C(=O)O)CC1)N1CCc2c(C(F)(F)F)nn(Cc3cc(F)c(F)cc3F)c2C1` [Example 5-32, trans-4-(2-(1-(2,4,5-Trifluorobenzyl)-3-(trifluoromethyl)-4,5-dihydro-1H-pyrazolo[3,4-c]pyridin-6(7H)-yl)-2-oxoethyl)cyclohexanecarboxylic acid] the figure was at most 100 nM. With `CN(C)C12CCC(C(=O)N3CCc4c(C(F)(F)F)nn(Cc5ccc(F)cc5)c4C3)(CC1)CC2` [Example 10-9, (4-(dimethylamino)bicyclo[2.2.2]octan-1-yl)(1-(4-fluorobenzyl)-3-(trifluoromethyl)-4,5-dihydro-1H-pyrazolo[3,4-c]pyridin-6(7H)-yl)methanone trifluoroacetate salt TFA salt] the figure was 250 to 500 nM. With `O=C(C[C@H]1CC[C@H](C(=O)O)CC1)N1CCc2c(C(F)(F)F)nn(Cc3cccnc3)c2C1` [Example 5-22, trans-4-(2-Oxo-2-(1-(pyridin-3-ylmethyl)-3-(trifluoromethyl)-4,5-dihydro-1H-pyrazolo[3,4-c]pyridin-6(7H)-yl)ethyl)cyclohexanecarboxylic acid] the figure was at most 100 nM; with `CN(C(=O)N1CCc2c(C(F)(F)F)nn(Cc3ccc(Cl)cc3F)c2C1)[C@H]1CC[C@H](C(=O)O)CC1` [Example 5-10, trans-4-(1-(4-Chloro-2-fluorobenzyl)-N-methyl-3-(trifluoromethyl)-4,5,6,7-tetrahydro-1H-pyrazolo[3,4-c]pyridine-6-carboxamido)cyclohexanecarboxylic acid], at most 100 nM; with `O=C(C[C@H]1CC[C@H](C(=O)O)CC1)N1CCc2c(C(F)(F)F)nn(Cc3ccccc3)c2C1` [Example 7-11, trans-4-(2-(1-Benzyl-3-(trifluoromethyl)-4,5-dihydro-1H-pyrazolo[3,4-c]pyridin-6(7H)-yl)-2-oxoethyl)cyclohexanecarboxylic acid], at most 100 nM. For the compound `O=C(CC12CCC(C(=O)O)(CC1)C2)N1CCc2c(C(F)(F)F)nn(Cc3ccc(F)cc3)c2C1` [Example 5-53, 4-(2-(1-(4-Fluorobenzyl)-3-(trifluoromethyl)-4,5-dihydro-1H-pyrazolo[3,4-c]pyridin-6(7H)-yl)-2-oxoethyl)bicyclo[2.2.1]heptane-1-carboxylic acid], the IC50 was at most 100 nM. With `CCOC(=O)C1CCN(C(C)C(=O)N2CCc3c(C(F)(F)F)nn(Cc4ccc(Cl)cc4F)c3C2)CC1` (centres unmarked) [Example 12-6, Ethyl 1-(1-(1-(4-chloro-2-fluorobenzyl)-3-(trifluoromethyl)-4,5-dihydro-1H-pyrazolo[3,4-c]pyridin-6(7H)-yl)-1-oxopropan-2-yl)piperidine-4-carboxylate] the figure was at most 100 nM; with `N[C@H]1CC[C@@H](CC(=O)N2CCc3c(C(F)(F)F)nn(Cc4ccc(Cl)cc4F)c3C2)CC1` [Example 9-17, 2-(cis-4-Aminocyclohexyl)-1-(1-(4-chloro-2-fluorobenzyl)-3-(trifluoromethyl)-4,5-dihydro-1H-pyrazolo[3,4-c]pyridin-6(7H)-yl)ethanone TFA salt], at most 100 nM; with `O=C(O)C1CC2(C1)CN(CC(=O)N1CCc3c(C(F)(F)F)nn(Cc4ccc(Cl)cc4F)c3C1)C2` [Example 13-21, 2-(2-(1-(4-Chloro-2-fluorobenzyl)-3-(trifluoromethyl)-4,5-dihydro-1H-pyrazolo[3,4-c]pyridin-6(7H)-yl)-2-oxoethyl)-2-azaspiro[3.3]heptane-6-carboxylic acid TFA salt], at most 100 nM. As to `O=C(O)C1CCN(CC(=O)N2CCc3c(C(F)(F)F)nn(Cc4ccc(Cl)cc4F)c3C2)CC1` [Example 13-2, 1-(2-(1-(4-Chloro-2-fluorobenzyl)-3-(trifluoromethyl)-4,5-dihydro-1H-pyrazolo[3,4-c]pyridin-6(7H)-yl)-2-oxoethyl)piperidine-4-carboxylic acid], the IC50 was at most 100 nM. With `O=C(O)C1CC2CCC(C1)C2CC(=O)N1CCc2c(C(F)(F)F)nn(Cc3ccc(Cl)cc3F)c2C1` (mixture of isomers) [Example 6-10, 8-(2-(1-(4-Chloro-2-fluorobenzyl)-3-(trifluoromethyl)-4,5-dihydro-1H-pyrazolo[3,4-c]pyridin-6(7H)-yl)-2-oxoethyl)bicyclo[3.2.1]octane-3-carboxylic acid], the IC50 is at most 100 nM.
